According to paper PMC12564223, “UHPLC-QTOF-ESI-MS/MS, SNAP-MS Identification, In Silico Prediction of Pharmacokinetic Properties of Constituents from the Stem Bark of Holarrhena floribunda (G. Don) T. Durand and Schinz (Apocynaceae)” (Biomolecules, 2025):
Where two headings read alike, the source gives them in different places.

Tests used:
[1] = system: P. falciparum 3D7 (Chloroquine-sensitive); experiment: Plasmodium falciparum growth inhibition assay (SYBR green I), 3D7 strain; assay type: cell-based; conditions: read-out: IC50/Pf3D7
[2] = system: P. falciparum Dd2 (multidrug-resistant); experiment: Plasmodium falciparum growth inhibition assay (SYBR green I), Dd2 strain; assay type: cell-based; conditions: for IC50: Plasmodium falciparum, read-out: IC50/PfDd2
[3] = system: Plasmodium falciparum K1 (multi-resistant); parameters: method as in PMID 29172699; conditions: Pf K1; ref [18]; cited from earlier work
[4] = system: Plasmodium falciparum FCB1 (chloroquine-resistant); parameters: method as in PMID 15863333; conditions: Pf FCB1; ref [17]; cited from earlier work
[5] = system: human cervix carcinoma KB-3-1 cancer cell lines
[6] = system: human cervix carcinoma KB-3-1 cancer cell lines; experiment: Cytotoxicity on KB-3-1 cells; conditions: called IC50 in the text
[7] = 3D7, compounds and reference drugs, 72 h incubation
[8] = DD2, compounds and reference drugs, 72 h incubation

Row | Compound | RI: [IC50PfDd2/IC50Pf3D7] ([2]; Resistance Index) | IC50 ([1]; 3D7, 72 h) [µM] | IC50 ([2]; DD2, 72 h) [µM] | IC50 [3] [µM] | further results
1 | C[C@@H]1CC[C@H]2[C@@H](C)C(=O)O[C@@H]3O[C@@]4(C)CC[C@@H]1[C@]32OO4 [Artemisinin, reference compound] | 0.71 | – | – | – | IC50 [1, 7]: 0.035 µM; IC50 [2, 8]: 0.025 ± 0.006 µM
2 | CCN(CC)CCCC(C)Nc1ccnc2cc(Cl)ccc12 (centres unmarked) [Chloroquine, reference compound] | – | 0.045 ± 0.003 | 0.73 ± 0.09 | – | RI: [IC50PfDd2/IC50Pf3D7] [2]: 16.22
3 | CC1N=CC23CCC4C(CC=C5CC(N)CCC54C)C2CCC13 (centres unmarked) [compound 3, Irheline] | – | – | – | 1.2 | IC50 [1, 7]: > 50 µM; IC50 [2, 8]: > 50 µM
4 | CNC1CCC2(C)C(=CCC3C2CCC24CNC(C)C2CCC34)C1 (centres unmarked) [compound 4, Conimin/conamine] | – | – | – | 8 | –
5 | C[C@H]1[C@H]2CC[C@H]3[C@@H]4CC=C5C[C@@H](N(C)C)CC[C@]5(C)[C@H]4CC[C@]23CN1C [compound 5, Conessine] | 1.09 | 26 ± 0.43 | 28.5 ± 0.704 | – | IC50 [4]: 1.04 µM
6 | CC(C)=CCC(=O)O[C@@H]1C[C@H]2[C@@H](CC=C3C[C@@H](N(C)C)CC[C@@]32C)[C@@H]2CC[C@@H]3[C@H](C)N(C)C[C@]312 [compound 10, Holarrhetine] | – | – | – | – | IC50 [4]: 1.13 ± 0.32 µM
7 | CNC1CCC2(C)C(=CCC3C2CC(OC(=O)CC=C(C)C)C24CN(C)C(C)C2CCC34)C1 (centres unmarked) [compound 11, Holarrhesine] | – | – | – | – | IC50 [4]: 0.97 ± 0.11 µM
8 | CC(=O)C1CCC2C3CC=C4CC(N)CCC4(C)C3CCC12C (centres unmarked) [compound 14, Holaphyllamine] | 1.12 | 49.5 ± 4.83 | 55.8 ± 9.75 | – | CC50 on KB-3-1 [5]: 9.8 µM
9 | CC(O)C1CCC2C3CC=C4CC(N)CCC4(C)C3CCC12C (centres unmarked) [compound 15, Holaphyllaminol] | – | – | – | 11.7 | –
10 | CNC1CCC2(C)C(=CCC3C2CCC2(C)C(C(C)=O)CCC32)C1 (centres unmarked) [compound 16, N-methylholaphyllamine] | – | – | – | 10.6 | –
11 | CCOC(=O)c1c(C)cc(O)cc1O [compound 26, ethylorsalinate] | – | – | – | – | IC50 [1, 7]: > 50 µM; IC50 [2, 8]: > 50 µM
12 | COc1cc(C)c2c(=O)c3c(O)cc(OC)cc3oc2c1 [compound 27, lichexanthone] | 1.09 | 33.4 ± 1.2 | 36.5 ± 1.39 | – | –
13 | Cryptophycin | – | – | – | – | CC50 on KB-3-1 [6]: 1.3 × 10^−5 μM µM; CC50 on KB-3-1 ([6]; listed as cryptophycin): 1.3e-05 µM
